US12660819B2, “Herbicidal derivatives” (SYNGENTA CROP PROTECTION AG, priority 2020, dated 2026)

What was measured:
Assay type in all cases: in vivo
[1] = system: Amaranthus retoflexus (AMARE); experiment: Pre-emergence Test (glasshouse, percentage damage to the plant); conditions: 1000 g/ha unless otherwise stated, five-point scale
Lolium perenne (LOLPE) [2] = experiment: Post-emergence Test (glasshouse, percentage damage to the plant); conditions: post-emergence spray, 1000 g/ha unless otherwise stated, evaluated after 13 days
Summary of the method: (§1)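 Percentage damage to the plant, assessed 13 days after application and scored 1–5 in 20% bands. Pots sown in standard soil received compound at 1000 g/ha unless otherwise stated, sprayed under 24/16 °C, 14 h light, 65% humidity.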

Setaria faberi (SETFA) [3] = experiment: as above; conditions: post-emergence spray, 1000 g/ha unless otherwise stated, evaluated after 13 days
Summary of the method: as §1

[4] = system: Ipomoea hederacea (IPOHE); experiment: as above; conditions: post-emergence spray, 1000 g/ha unless otherwise stated, evaluated after 13 days
Summary of the method: as §1

Solanum nigrum (SOLNI) [5] = experiment: as above; conditions: post-emergence spray, 1000 g/ha unless otherwise stated, evaluated after 13 days
Summary of the method: as §1

[6] = system: Echinochloa crus-galli (ECHCG); experiment: as above; conditions: post-emergence spray, 1000 g/ha unless otherwise stated, evaluated after 13 days
Summary of the method: as §1

[7] = system: Amaranthus retoflexus (AMARE); experiment: as above; conditions: post-emergence spray, 1000 g/ha unless otherwise stated, evaluated after 13 days
Summary of the method: as §1

Solanum nigrum (SOLNI) [8] = experiment: Pre-emergence Test (glasshouse, percentage damage to the plant); conditions: 1000 g/ha unless otherwise stated, five-point scale
Setaria faberi (SETFA) [9] = experiment: as above; conditions: 1000 g/ha unless otherwise stated, five-point scale
[10] = system: Echinochloa crus-galli (ECHCG); experiment: as above; conditions: 1000 g/ha unless otherwise stated, five-point scale
Lolium perenne (LOLPE) [11] = experiment: as above; conditions: 1000 g/ha unless otherwise stated, five-point scale
[12] = system: Ipomoea hederacea (IPOHE); experiment: as above; conditions: 1000 g/ha unless otherwise stated, five-point scale

Row | SMILES | percentage damage to the plant, AMARE [1] | Post-emergence Test LOLPE, percentage damage to the plant (five-point scale) (Lolium perenne (LOLPE) [2]) | Post-emergence Test SETFA, percentage damage to the plant (five-point scale) (Setaria faberi (SETFA) [3]) | Post-emergence Test IPOHE, percentage damage to the plant (five-point scale) [4] | Post-emergence Test SOLNI, percentage damage to the plant (five-point scale) (Solanum nigrum (SOLNI) [5]) | Post-emergence Test ECHCG, percentage damage to the plant (five-point scale) [6] | Post-emergence Test AMARE, percentage damage to the plant (five-point scale) [7] | percentage damage to the plant, SOLNI (Solanum nigrum (SOLNI) [8]) | percentage damage to the plant, SETFA (Setaria faberi (SETFA) [9]) | percentage damage to the plant, ECHCG [10] | percentage damage to the plant, LOLPE (Lolium perenne (LOLPE) [11]) | percentage damage to the plant, IPOHE [12]
1 | CCn1c(C)c(-c2ncco2)c(=O)c(C(=O)O)c1-c1ccc(Cl)c(Cl)c1 [Compound 27, 2-(3,4-dichlorophenyl)-1-ethyl-6-methyl-5-oxazol-2-yl-4-oxo-pyridine-3-carboxylic acid] | 1 (1=0-20%) | 1 (1=0-20%) | 3 (3=41-60%) | 2 (2=21-40%) | 3 (3=41-60%) | 3 (3=41-60%) | 3 (3=41-60%) | 1 (1=0-20%) | 1 (1=0-20%) | 1 (1=0-20%) | 1 (1=0-20%) | 1 (1=0-20%)
2 | CCn1c(C)c(-c2ncco2)c(=O)c(C(=O)OC)c1-c1ccc(Cl)c(Cl)c1 [Compound 38, methyl 2-(3,4-dichlorophenyl)-1-ethyl-6-methyl-5-oxazol-2-yl-4-oxo-pyridine-3-carboxylate] | 1 (1=0-20%) | 1 (1=0-20%) | 1 (1=0-20%) | 1 (1=0-20%) | 1 (1=0-20%) | 1 (1=0-20%) | 1 (1=0-20%) | 1 (1=0-20%) | 1 (1=0-20%) | 1 (1=0-20%) | 1 (1=0-20%) | 1 (1=0-20%)
3 | CCn1c(C)c(-c2ccc(Cl)c(Cl)c2)c(=O)c(C(=O)O)c1-c1ccc(Cl)c(Cl)c1 [Compound 29, 2,5-bis(3,4-dichlorophenyl)-1-ethyl-6-methyl-4-oxo-pyridine-3-carboxylic acid] | 3 (3=41-60%) | 2 (2=21-40%) | 3 (3=41-60%) | 2 (2=21-40%) | 3 (3=41-60%) | 1 (1=0-20%) | 5 (5=81-100%) | 1 (1=0-20%) | 3 (3=41-60%) | 1 (1=0-20%) | 1 (1=0-20%) | 1 (1=0-20%)
4 | Cc1c(-c2ccc(Cl)cc2)c(=O)c(C(=O)O)c(-c2ccc(Cl)c(Cl)c2)n1C [Compound 5, 5-(4-chlorophenyl)-2-(3,4-dichlorophenyl)-1,6-dimethyl-4-oxo-pyridine-3-carboxylic acid] | 4 (4=61-80%) | 1 (1=0-20%) | 5 (5=81-100%) | 3 (3=41-60%) | 2 (2=21-40%) | 5 (5=81-100%) | 3 (3=41-60%) | 4 (4=61-80%) | 4 (4=61-80%) | 4 (4=61-80%) | 4 (4=61-80%) | 4 (4=61-80%)
5 | CCn1c(C)c(-c2ccnnc2)c(=O)c(C(=O)O)c1-c1ccc(Cl)c(Cl)c1 [Compound 35, 2-(3,4-dichlorophenyl)-1-ethyl-6-methyl-4-oxo-5-pyridazin-4-yl-pyridine-3-carboxylic acid;2,2,2-trifluoroacetic acid, 2,2,2-trifluoroacetate] | 1 (1=0-20%) | 1 (1=0-20%) | 2 (2=21-40%) | 1 (1=0-20%) | 1 (1=0-20%) | 2 (2=21-40%) | 1 (1=0-20%) | 1 (1=0-20%) | 1 (1=0-20%) | 1 (1=0-20%) | 1 (1=0-20%) | 1 (1=0-20%)
6 | CCn1c(C)c(-c2ccccc2C)c(=O)c(C(=O)O)c1-c1ccc(Cl)c(Cl)c1 [Compound 31, 2-(3,4-dichlorophenyl)-1-ethyl-6-methyl-5-(o-tolyl)-4-oxo-pyridine-3-carboxylic acid] | 1 (1=0-20%) | 2 (2=21-40%) | 3 (3=41-60%) | 2 (2=21-40%) | 4 (4=61-80%) | 1 (1=0-20%) | 3 (3=41-60%) | 4 (4=61-80%) | 4 (4=61-80%) | 1 (1=0-20%) | 1 (1=0-20%) | 1 (1=0-20%)
7 | CCn1c(C)c(-c2ccc(S(C)(=O)=O)cc2)c(=O)c(C(=O)O)c1-c1ccc(Cl)c(Cl)c1 [Compound 32, 2-(3,4-dichlorophenyl)-1-ethyl-6-methyl-5-(4-methylsulfonylphenyl)-4-oxo-pyridine-3-carboxylic acid] | 1 (1=0-20%) | 1 (1=0-20%) | 3 (3=41-60%) | 1 (1=0-20%) | 3 (3=41-60%) | 4 (4=61-80%) | 1 (1=0-20%) | 1 (1=0-20%) | 4 (4=61-80%) | 4 (4=61-80%) | 1 (1=0-20%) | 1 (1=0-20%)
8 | CCn1c(C)c(-c2ccc(C(F)(F)F)cc2)c(=O)c(C(=O)O)c1-c1ccc(Cl)c(Cl)c1 [Compound 26, 2-(3,4-dichlorophenyl)-1-ethyl-6-methyl-4-oxo-5-[4-(trifluoromethyl)phenyl]pyridine-3-carboxylic acid] | 1 (1=0-20%) | 1 (1=0-20%) | 5 (5=81-100%) | 4 (4=61-80%) | 2 (2=21-40%) | 4 (4=61-80%) | 5 (5=81-100%) | 1 (1=0-20%) | 1 (1=0-20%) | 1 (1=0-20%) | 1 (1=0-20%) | 1 (1=0-20%)
9 | CCn1c(C)c(-c2ccc(F)nc2)c(=O)c(C(=O)O)c1-c1ccc(Cl)c(Cl)c1 [Compound 8, 2-(3,4-dichlorophenyl)-1-ethyl-5-(6-fluoro-3-pyridyl)-6-methyl-4-oxo-pyridine-3-carboxylic acid] | 3 (3=41-60%) | 3 (3=41-60%) | 5 (5=81-100%) | 4 (4=61-80%) | 5 (5=81-100%) | 4 (4=61-80%) | 5 (5=81-100%) | 3 (3=41-60%) | 4 (4=61-80%) | 2 (2=21-40%) | 3 (3=41-60%) | 1 (1=0-20%)
10 | CCn1c(C)c(-c2cncc(Cl)c2)c(=O)c(C(=O)O)c1-c1ccc(Cl)c(Cl)c1 [Compound 23, 5-(5-chloro-3-pyridyl)-2-(3,4-dichlorophenyl)-1-ethyl-6-methyl-4-oxo-pyridine-3-carboxylic acid] | 1 (1=0-20%) | 1 (1=0-20%) | 4 (4=61-80%) | 3 (3=41-60%) | 1 (1=0-20%) | 3 (3=41-60%) | 3 (3=41-60%) | 1 (1=0-20%) | 5 (5=81-100%) | 1 (1=0-20%) | 1 (1=0-20%) | 1 (1=0-20%)
